According to patent US11981661B2, “Heterocyclic compounds” (Hoffmann-La Roche Inc., priority 2020, dated 2024):

What follows are molecules tested against T1, MAGL (Homo sapiens, UniProt Q99685) (assay: 2-AG assay (MAGL inhibitory activity, hydrolysis of 2-arachidonoylglycerol followed by mass spectrometry)). Details: 50 pM MAGL, 8 μM 2-arachidonoylglycerol, 15 min preincubation, 30 min incubation at RT, concentration range 12.5 μM to 0.8 pM.
T1 sequence (Q99685 1-303): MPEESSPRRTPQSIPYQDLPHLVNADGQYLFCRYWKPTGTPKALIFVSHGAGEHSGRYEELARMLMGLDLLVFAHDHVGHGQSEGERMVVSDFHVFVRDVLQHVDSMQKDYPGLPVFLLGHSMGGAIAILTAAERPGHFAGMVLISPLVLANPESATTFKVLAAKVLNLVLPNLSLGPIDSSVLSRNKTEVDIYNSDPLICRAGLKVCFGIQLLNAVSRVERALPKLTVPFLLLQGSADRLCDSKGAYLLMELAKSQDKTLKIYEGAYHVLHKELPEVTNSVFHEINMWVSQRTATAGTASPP
Type: biochemical
Description: Compounds were profiled for MAGL inhibitory activity by determining the enzymatic activity by following the hydrolysis of the natural substrate 2-arachidonoylglycerol resulting in arachidonic acid, which can be followed by mass spectrometry. This assay is hereinafter abbreviated “2-AG assay”.
The 2-AG assay was carried out in 384 well assay plates (PP, Greiner Cat #784201) in a total volume of 20 μL. Compound dilutions were made in 100% DMSO (VWR Chemicals 23500.297) in a polypropylene plate in 3-fold dilution steps to give a final concentration range in the assay from 12.5 μM to 0.8 pM. 0.25 μL compound dilutions (100% DMSO) were added to 9 μL MAGL in assay buffer (50 mM TRIS (GIBCO, 15567-027), 1 mM EDTA (Fluka, 03690-100 mL), 0.01% (v/v) Tween. After shaking, the plate was incubated for 15 min at RT. To start the reaction, 10 μL 2-arachidonoylglycerol in assay buffer was added. The final concentrations in the assay was 50 pM MAGL and 8 μM 2-arachidonoylglyerol. After shaking and 30 min incubation at RT, the reaction was quenched by the addition of 40 μL of ACN containing 4 μM of d8-arachidonic acid. The amount of arachidonic acid was traced by an online SPE system (Agilent Rapidfire) coupled to a triple quadrupole mass spectrometer (Agilent 6460). A C18 SPE cartridge (G9205A) was used in an ACN/water liquid setup. The mass spectrometer was operated in negative electrospray mode following the mass transitions 303.1→259.1 for arachidonic acid and 311.1→267.0 for d8-arachidonic acid. The activity of the compounds was calculated based on the ratio of intensities [arachidonic acid/d8-arachidonic acid].

**Q.** Which IC50 does the source give for `Cc1cc(C)n(-c2ccc(C3CN(C(=O)CC[C@@H]4COC(=O)N4)C3)cc2)n1` [Example 145, (4R)-4-[3-[3-[4-(3,5-Dimethyl-pyrazol-1-yl)phenyl]azetidin-1-yl]-3-oxo-propyl]oxazolidin-2-one] here?
**A.** 73 nM

**Q.** Which IC50 does the source give for `O=C1N[C@H](CCC(=O)N2CC3(CC(Nc4ccc(C(F)(F)F)nn4)C3)C2)CO1` [Example 151, (4R)-4-[3-Oxo-3-[6-[[6-(trifluoro-methyl)pyridazin-3-yl]amino]-2-azaspiro[3.3]heptan-2-yl]propyl] oxazolidin-2-one] here?
**A.** 1240 nM

**Q.** `O=C1N[C@H](CCC(=O)N2CC(c3ccc(N(c4ccccc4)c4ccccc4)cc3)C2)CO1` [Example 90, (4R)-4-[3-Oxo-3-[3-[4-(N-phenylanilino)phenyl]azetidin-1-yl]propyl] oxazolidin-2-one] was tested. Which IC50 did it give?
**A.** 0.02 nM

**Q.** How did the IC50 turn out when `O=C1N[C@H](CCC(=O)N2CC(c3ccc(N4CC(C(F)(F)F)C4)cc3)C2)CO1` [Example 100, (4R)-4-[3-Oxo-3-[3-[4-[3-(trifluoromethyl)azetidin-1-yl]phenyl]azetidin-1-yl]propyl]oxazolidin-2-one] was run?
**A.** 7 nM

**Q.** `O=C1N[C@H](CCC(=O)N2CC(c3ccc(Oc4ccccc4Cl)nc3)C2)CO1` [Example 28, (4R)-4-[3-[3-[6-(2-Chlorophenoxy)-3-pyridyl]azetidin-1-yl]-3-oxo-propyl]oxazolidin-2-one] was tested. Which IC50 did it give?
**A.** 10 nM

**Q.** For `O=C1N[C@H](CCC(=O)N2CC(c3ccc(N4CCC(C(F)(F)F)C4)nc3)C2)CO1` (stereo partly drawn) [Example 34, (4R)-4-[3-Oxo-3-[3-[6-[3-(trifluoromethyl)pyrrolidin-1-yl]-3-pyridyl]azetidin-1-yl]propyl]oxazolidin-2-one], which IC50 is on record?
**A.** 14 nM

**Q.** With `CC1(CCC(=O)N2CC(c3ccc(C4(C(F)(F)F)CC4)cc3)C2)CCC(=O)N1` (single isomer, unassigned) [Example 15, (−)- or (+)-5-Methyl-5-[3-oxo-3-[3-[4-[1-(trifluoromethyl)cyclopropyl]phenyl]azetidin-1-yl]propyl]pyrrolidin-2-one] as the molecule, how does the IC50 read?
**A.** ≥ 12500 nM

**Q.** Which IC50 does the source give for `O=C1NC(COC(=O)N2CC(c3ccc(N4CCC(C(F)(F)F)C4)nc3)C2)CO1` (single isomer, unassigned) [Example 86, (−)- or (+)-[(4S)-2-Oxooxazolidin-4-yl]methyl 3-[6-[3-(trifluoromethyl)pyrrolidin-1-yl]-3-pyridyl]azetidine-1-carboxylate] here?
**A.** 54 nM

**Q.** Which IC50 does the source give for `O=C1N[C@H](CCC(=O)N2CC(c3ccc(N4CCC(O)(C(F)(F)F)C4)nc3)C2)CO1` (stereo partly drawn) [Example 205, (+)- or (−)-(4R)-4-[3-[3-[6-[3-Hydroxy-3-(trifluoromethyl)pyrrolidin-1-yl]-3-pyridyl]azetidin-1-yl]-3-oxo-propyl]oxazolidin-2-one] here?
**A.** 170 nM

**Q.** Which IC50 does the source give for `O=C1N[C@H](CCC(=O)N2CC(c3ccc(-c4ccc(Cl)cc4F)cn3)C2)CO1` [Example 113, (4R)-4-[3-[3-[5-(4-Chloro-2-fluoro-phenyl)-2-pyridyl]azetidin-1-yl]-3-oxo-propyl]oxazolidin-2-one] here?
**A.** 3 nM

**Q.** How did the IC50 turn out when `O=C1N[C@H](CCC(=O)N2CC(c3ccc(Oc4ccc(OC(F)(F)F)cc4)nc3)C2)CO1` [Example 31, (4R)-4-[3-Oxo-3-[3-[6-[4-(trifluoromethoxy)phenoxy]-3-pyridyl]azetidin-1-yl]propyl]oxaazolidin-2-one] was run?
**A.** 83 nM

**Q.** Which IC50 does the source give for `O=C1N[C@H](COC(=O)N2CC(c3ccc(N4CCC(C(F)(F)F)C4)nc3)C2)CO1` (stereo partly drawn) [Example 62, [(4S)-2-Oxooxazolidin-4-yl]methyl 3-[6-[3-(trifluoromethyl)pyrrolidin-1-yl]-3-pyridyl]azetidine-1-carboxylate] here?
**A.** 26 nM

**Q.** For `O=C1NC(COC(=O)N2CC(c3ccc(N4CCC(C(F)(F)F)C4)nc3)C2)CO1` (single isomer, unassigned) [Example 87, (+)- or (−)-[(4S)-2-Oxooxazolidin-4-yl]methyl 3-[6-[3-(trifluoromethyl)pyrrolidin-1-yl]-3-pyridyl]azetidine-1-carboxylate], which IC50 is on record?
**A.** 32 nM

**Q.** Which IC50 does the source give for `CS(=O)(=O)c1ccc(-c2cnc(C3CN(C(=O)CC[C@@H]4COC(=O)N4)C3)cn2)c(Cl)c1` [Example 110, (4R)-4-[3-[3-[5-(2-Chloro-4-methylsulfonyl-phenyl)pyrazin-2-yl]azetidin-1-yl]-3-oxo-propyl]oxazolidin-2-one] here?
**A.** 70 nM

**Q.** For `O=C1N[C@@H](CCC(=O)N2CC(c3ccc(-c4ccc(F)cc4F)cc3)C2)CO1` [Example 23, (4S)-4-[3-[3-[4-(2,4-Difluorophenyl)phenyl]azetidin-1-yl]-3-oxo-propyl]oxazolidin-2-one], which IC50 is on record?
**A.** 381 nM

**Q.** With `O=C1COCC(CCC(=O)N2CC(OCc3ccc(C(F)(F)F)cc3F)C2)N1` (single isomer, unassigned; (-)) [Example 50, (−)-5-[3-[3-[[2-Fluoro-4-(trifluoromethyl)phenyl]methoxy]azetidin-1-yl]-3-oxo-propyl]morpholin-3-one] as the molecule, how does the IC50 read?
**A.** ≥ 12500 nM

**Q.** `O=C1N[C@H](CCC(=O)N2CC(c3ccc(NCC4(C(F)(F)F)CC4)cn3)C2)CO1` [Example 175, (4R)-4-[3-Oxo-3-[3-[5-[[1-(trifluoromethyl)cyclopropyl]methylamino]-2-pyridyl]azetidin-1-yl]propyl]oxazolidin-2-one] was tested. Which IC50 did it give?
**A.** 17 nM

**Q.** Which IC50 does the source give for `CS(=O)(=O)c1cc(Cl)ccc1-c1ccc(C2CN(C(=O)CC[C@@H]3COC(=O)N3)C2)nc1` [Example 121, (4R)-4-[3-[3-[5-(4-Chloro-2-methylsulfonyl-phenyl)-2-pyridyl]azetidin-1-yl]-3-oxo-propyl]oxazolidin-2-one] here?
**A.** 2 nM

**Q.** Which IC50 does the source give for `O=C1N[C@H](CCC(=O)N2CC3(CC(Oc4ccc(C(F)(F)F)nn4)C3)C2)CO1` [Example 152, (4R)-4-[3-Oxo-3-[6-[6-(trifluoro-methyl)pyridazin-3-yl]oxy-2-azaspiro[3.3]heptan-2-yl]propyl] oxazolidin-2-one] here?
**A.** 1410 nM

**Q.** `CC(C)c1ccc(N(C)c2ccc(C3CN(C(=O)CC[C@@H]4COC(=O)N4)C3)cn2)cc1` [Example 94, (4R)-4-[3-[3-[6-(4-Isopropyl-N-methyl-anilino)-3-pyridyl]azetidin-1-yl]-3-oxo-propyl]oxazolidin-2-one] was tested. Which IC50 did it give?
**A.** 10 nM

**Q.** `O=C1N[C@H](CCC(=O)N2CC3(C2)CN(S(=O)(=O)c2ccc(C(F)(F)F)cc2)C3)CO1` [Example 147, (4R)-4-[3-Oxo-3-[2-[4-(trifluoromethyl)phenyl]sulfonyl-2,6-diazaspiro [3.3]heptan-6-yl]propyl] oxazolidin-2-one] was tested. Which IC50 did it give?
**A.** 2270 nM

**Q.** With `CS(=O)(=O)c1ccc(-c2ncc(C3CN(C(=O)CC[C@@H]4COC(=O)N4)C3)cn2)c(Cl)c1` [Example 123, (4R)-4-[3-[3-[2-(2-Chloro-4-methylsulfonyl-phenyl)pyrimidin-5-yl]azetidin-1-yl]-3-oxo-propyl] oxazolidin-2-one] as the molecule, how does the IC50 read?
**A.** 982 nM

**Q.** Which IC50 does the source give for `O=C1N[C@H](CCC(=O)N2CC3(CCN(Cc4ccc(C(F)(F)F)cc4F)CC3)C2)CO1` [Example 126, (4R)-4-[3-[7-[[2-Fluoro-4-(trifluoro-methyl)phenyl]methyl]-2,7-diazaspiro[3.5]nonan-2-yl]-3-oxo-propyl] oxazolidin-2-one] here?
**A.** 25 nM

**Q.** Which IC50 does the source give for `CS(=O)(=O)c1ncc(C(F)(F)F)cc1-c1ccc(C2CN(C(=O)CC[C@@H]3COC(=O)N3)C2)cc1` [Example 124, (4R)-4-[3-[3-[4-[2-Methyl-sulfonyl-5-(trifluoromethyl)-3-pyridyl]phenyl]azetidin-1-yl]-3-oxo-propyl] oxazolidin-2-one] here?
**A.** 3 nM
